Among the data in PubChem BioAssay (NCI) are TGI values, retold here.

Structures are written as SMILES.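 Assay format: 96-well plates, 48-hour exposure. TGI: total growth inhibition.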 A value given as a limit tells only on which side of the number the result lay.

Common to all, as to test: growth of human tumour cells (NCI), 48 h
The subject of experiment [1] is TK-10 renal.
The test system of experiment [2] is U251 CNS.
Experiment [3] concerns LOX IMVI melanoma.
Experiment [4] deals with HT29 colon.
The subject of experiment [5] is IGROV1 ovarian.
Experiment [6] relates to SK-MEL-28 melanoma.
Experiment [7] concerns SNB-19 CNS.
In experiment [8] the test system is RXF 393 renal.
Experiment [9] has as its system CAKI-1 renal.
In experiment [10] the test system is 786-0 renal.
The subject of experiment [11] is UACC-257 melanoma.
Experiment [12] concerns HOP-62 NSCLC.
Experiment [13] deals with A549 NSCLC.
Experiment [14] relates to K-562 leukemia.
The test system of experiment [15] is MDA-N.
Experiment [16] concerns SF-268 CNS.
Experiment [17] relates to UACC-62 melanoma.
In experiment [18] the test system is SK-OV-3 ovarian.
Experiment [19] concerns NCI-H460 lung.
Experiment [20] has as its system MALME-3M melanoma.

In the case of `Oc1ccccc1-c1nn2c(CCCCCCCCc3nnc4sc(-c5ccccc5O)nn34)nnc2s1`, the TGI in experiment [1] is > 100 µM; in [2] it was > 100 µM; in experiment [3] it was > 64.1 µM; in experiment [4], > 67.7 µM; in experiment [5] it was > 100 µM; in [6], > 100 µM. In addition, the TGI is > 100 µM in experiment [7]; > 64.1 µM in experiment [8]; > 100 µM in [9]; > 100 µM in experiment [10]; > 100 µM in experiment [11]; > 92.2 µM in experiment [12]. Besides, the TGI in [13] is > 78 µM; in [14], > 100 µM; in experiment [15], > 100 µM; in [16] it was > 100 µM; in [17], > 100 µM; in [18] it was 83.8 µM. Besides, the TGI in [19] and in [20] was > 100 µM throughout.

For the molecule `COc1ccc(-c2cc(-c3ccccc3)nc3c2CC(=O)Nc2ccccc2-3)cc1OC`, the TGI in [1], in [2], in experiment [3], in experiment [4], in experiment [5] and in experiment [6] was > 100 µM in each case. For the same molecule, the TGI in experiment [7] was > 100 µM; in [8], > 46.3 µM; in experiment [9], > 100 µM; in experiment [10] it was > 100 µM; in experiment [11] it was > 100 µM; in experiment [12], 18.2 µM. Also, the TGI in experiment [13] was > 36.3 µM; in experiment [14], > 100 µM; in experiment [15], > 100 µM; in [16], > 100 µM; in experiment [17], > 100 µM; in experiment [18] it was > 92.6 µM. Also, the TGI in experiment [19] was > 100 µM; in [20], > 70.3 µM.

Consider `C[N+](C)(C)C(C1=CCCC1=O)c1ccccc1` (configuration not stated), for which the TGI in experiment [1] was > 100 µM; in experiment [2] it was 42.7 µM; in [3] it was 38.3 µM; in [4] it was 56 µM; in experiment [5] it was > 100 µM; in [6], > 100 µM. In addition, the TGI in experiment [7] was > 100 µM; in experiment [8] it was 41.8 µM; in experiment [9], 63.9 µM; in experiment [10], 39.9 µM; in experiment [11], 64.4 µM; in experiment [12], 80.2 µM. In addition, the TGI in [13] is > 100 µM; in [14], > 100 µM; in experiment [15] it was > 100 µM; in experiment [16], 60.1 µM; in experiment [17], 38.8 µM; in [18], > 100 µM. Further, the TGI came to 89.8 µM in [19] and 41 µM in [20].

For the molecule `COc1ccc(/C=C2\CN(C)CC3C2=NN(c2ccccc2)C3c2ccc(OC)cc2)cc1` (configuration not stated), the TGI in experiment [1] is 91.8 µM; in experiment [3], > 100 µM; in experiment [4], > 100 µM; in experiment [5], > 100 µM; in [6] it was > 100 µM; in experiment [7], > 100 µM. In addition, the TGI was 48.2 µM in experiment [8]; > 100 µM in [9]; > 100 µM in experiment [10]; > 100 µM in experiment [11]; > 100 µM in experiment [12]; > 100 µM in [13]. Also, the TGI is > 100 µM in experiment [14]; > 100 µM in experiment [15]; > 100 µM in experiment [16]; > 100 µM in experiment [17]; 55.1 µM in experiment [18]; > 100 µM in [19]. Besides, in [20], the TGI is > 100 µM.

For `CNc1nc2c(C)ccc3[nH]c(N(C)C)nc3c-2n1`, the TGI in [1], in [2], in experiment [3], in experiment [4], in experiment [5] and in experiment [6] was > 100 µM throughout. For the same molecule, the TGI in experiment [7] was 65 µM; in [8], > 100 µM; in [9], > 100 µM; in experiment [10], > 100 µM; in experiment [11], > 100 µM; in experiment [12] it was > 100 µM. Besides, the TGI was > 100 µM in experiment [13]; 45 µM in experiment [14]; > 100 µM in experiment [15]; > 100 µM in experiment [16]; > 100 µM in experiment [17]; > 100 µM in [18]. Also, the TGI in experiment [19] was > 100 µM; in [20], 95.6 µM.

For `CS/C=C\C(=O)O[C@H]1C[C@@H]2[C@@H](O)c3occ(C)c3C[C@]2(C)[C@@H](C)C1`, the TGI in [1] is > 100 µM; in experiment [2], 7.93 µM; in experiment [3], 32.8 µM; in experiment [4] it was 51.8 µM; in [5], 40.3 µM; in experiment [6], 35.9 µM. The TGI is > 100 µM in [7]; 47.2 µM in experiment [8]; > 100 µM in experiment [9]; 30.2 µM in experiment [10]; 30.5 µM in experiment [11]; 40.9 µM in experiment [12]. For the same molecule, the TGI in [14] is 47 µM; in experiment [15] it was 47.2 µM; in [16], 82.3 µM; in experiment [17] it was 37.9 µM; in experiment [18], > 100 µM; in experiment [19], 60.7 µM. In addition, the TGI in [20] was found to be 35.6 µM.

`S=C(c1c[nH]c2ccccc12)N1CCCCC1`: the TGI in experiment [1], in [2], in experiment [3], in experiment [4], in [5] and in experiment [6] was > 100 µM in each case. The TGI in [7], in experiment [8], in experiment [9], in experiment [10], in experiment [11] and in experiment [12] was > 100 µM each time. For the same molecule, the TGI in [14], in [15], in experiment [16], in [17], in experiment [18] and in experiment [19] was > 100 µM throughout. Besides, in experiment [20], the TGI was > 100 µM.

As to `O=C(CCc1ccc(O)cc1)NCCCNC(=O)CCc1ccc(O)cc1`, the TGI in experiment [2], in experiment [3], in [4], in [5], in experiment [6] and in experiment [7] was > 100 µM in each case. Further, the TGI in experiment [8], in [9], in [10], in [11], in experiment [12] and in [13] was > 100 µM in each case. The TGI in experiment [14], in experiment [15], in experiment [16], in experiment [17], in experiment [18] and in [19] was > 100 µM throughout. For the same molecule, the TGI in experiment [20] was > 100 µM.

For the molecule `CC(=O)c1ccccc1NS(=O)(=O)c1ccc2nc(C)n(NS(=O)(=O)c3ccccc3C(C)=O)c(=O)c2c1`, the TGI in experiment [1], in experiment [2], in experiment [3], in experiment [4], in experiment [5] and in experiment [6] was > 100 µM each time. The TGI in experiment [7], in [8], in [9], in experiment [10], in experiment [11] and in [12] was > 100 µM in each case. The TGI in experiment [14], in experiment [15], in [16], in [17], in [18] and in experiment [19] was > 100 µM each time. The TGI in [20] was > 100 µM.

As to `Nc1ccc(OCCCc2c(-c3ccccc3)nc(N)[nH]c2=O)cc1`, the TGI in experiment [2], in experiment [3], in [4], in experiment [5], in experiment [6] and in experiment [7] was > 100 µM each time. For the same molecule, the TGI in [8], in experiment [9], in experiment [10], in experiment [11], in [12] and in experiment [14] was > 100 µM in each case. Besides, the TGI is > 100 µM in experiment [15]; > 100 µM in experiment [16]; 43 µM in experiment [17]; > 100 µM in experiment [18]; > 100 µM in experiment [19]; > 100 µM in experiment [20].

In the case of `NC(=S)N/N=C1\CCCCC1C(O)(C(F)(F)Cl)C(F)(F)Cl` (configuration not stated), the TGI in experiment [1], in [2], in [3], in experiment [4], in experiment [5] and in experiment [6] was > 10 µM throughout. Further, the TGI in [7], in experiment [8], in experiment [10], in experiment [11], in [12] and in [13] was > 10 µM throughout. The TGI in experiment [14], in [15], in [16], in [17], in [18] and in [19] was > 10 µM throughout. For the same molecule, the TGI in [20] was > 10 µM.
